Patent US8563616B2, “Desensitizing drug product” (priority 2009, dated 2013)
Read-outs that look alike come from different tables or passages of the source.

Experiments:
[1] = pKa and ionization of lidocaine; format: physicochemical; conditions: pH 8.9
[2] = mixture containing 25% ethyl alcohol, 5% lidocaine, pH 9.2 phosphate buffer; cited from earlier work
[3] = Melt System III, cited from earlier work; for Percentage in aq: amount in aqueous phase/total amount in whole system × 100; for Percentage in oil: amount in oil phase/total amount in whole system × 100; for Conc in aq: g per 100 g of aqueous phase; for Conc in oil: g per 100 g of oil phase
[4] = in the mixtures that formed a homogenous oil; cited from earlier work

Structure (SMILES) | ionized [1] [%] | concentration of lidocaine in the oil [2] | Percentage in aq [3] [%] | Percentage in oil [3] | Percentage in oil ([3]; listed as L) [%] | Conc in aq [3] [%] | Conc in oil [3] [%] | Percentage in oil ([3]; listed as T) [%] | chemical stability [4]
CCN(CC)CC(=O)Nc1c(C)cccc1C [Lidocaine, lidocaine] | 10 | 73 % (w:w) | 20.80 | approximately 80% | 79.20 | 1.09 | 87.00 | – | –
Cc1ccc(C(C)C)c(O)c1 [Thymol, thymol] | – | – | 14.88 | approximately 85% | – | 0.09 | 10.60 | 85.13 | chemically stable
